Data on 41 compounds can be found in patent publication US7166738B2, “Non-nucleoside reverse transcriptase inhibitors” (Roche Palo Alto LLC, priority 2004, dated 2007).

In the case of `CCC(=O)NS(=O)(=O)c1ccc(NC(=O)Cc2ccc(Cl)c(Oc3cc(Cl)cc(C#N)c3)c2F)c(Cl)c1.[Na]`, the melting point is 155.4 to 157.5 °C. In the case of `Cl.N#Cc1cc(Cl)cc(Oc2c(Cl)ccc(CC(=O)Nc3ccc(S(=O)(=O)NC(=O)CCN)cc3Cl)c2F)c1`, the melting point is 199.3 to 199.6 °C. The same measure for `COCC(=O)NS(=O)(=O)c1ccc(NC(=O)Cc2ccc(Cl)c(Oc3cc(Cl)cc(C#N)c3)c2F)c(Cl)c1.[Na]`: 151.7 to 152.3 °C; for `N#Cc1cc(Cl)cc(Oc2c(Cl)ccc(CC(=O)Nc3ccc(S(=O)(=O)NC(=O)CO)cc3Cl)c2F)c1.[Na]`: 178 to 179.5 °C; for `Cc1cc(C(=O)CN2CCOCC2)ccc1NC(=O)Cc1ccc(C)c(Oc2cc(Cl)cc(C#N)c2)c1.O=C(O)C(F)(F)F`: 110.3 to 110.5 °C. As to `COCCC(=O)NS(=O)(=O)c1ccc(NC(=O)Cc2ccc(Cl)c(Oc3cc(Cl)cc(C#N)c3)c2F)c(Cl)c1.[Na]`, the melting point fell in the range of 133.1 to 140.7 °C. As to `CCCCC(=O)NS(=O)(=O)c1ccc(NC(=O)Cc2ccc(Cl)c(Oc3cc(Cl)cc(C#N)c3)c2F)c(Cl)c1.[Na]`, the melting point lay within 157.6 to 159.2 °C. `CC(C)CC(=O)NS(=O)(=O)c1ccc(NC(=O)Cc2ccc(Cl)c(Oc3cc(Cl)cc(C#N)c3)c2F)c(Cl)c1.[Na]` gave a melting point of 159.3 to 163.4 °C. Consider `CCN(CC)CC(=O)NS(=O)(=O)c1ccc(NC(=O)Cc2ccc(Cl)c(Oc3cc(Cl)cc(C#N)c3)c2F)c(Cl)c1.Cl`, for which the melting point was 195.3 to 197.2 °C. `CC(C)CCC(=O)NS(=O)(=O)c1ccc(NC(=O)Cc2ccc(Cl)c(Oc3cc(Cl)cc(C#N)c3)c2F)c(Cl)c1.[Na]` came in with a melting point of 195.6 to 197 °C. In turn, `Cl.N#Cc1cc(Cl)cc(Oc2c(Cl)ccc(CC(=O)Nc3ccc(S(=O)(=O)NC(=O)CN4CCOCC4)cc3Cl)c2F)c1` displayed a melting point of 223.3 to 225 °C.

As for `CCC(=O)NS(=O)(=O)c1ccc(NC(=O)Cc2ccc(C)c(Oc3cc(Cl)cc(C#N)c3)c2F)c(Cl)c1.[Na]`, the melting point was in the range of 158.8 to 162 °C. Regarding `Cc1cc(S(=O)(=O)NC(=O)[C@@H](N)C(C)C)ccc1NC(=O)Cc1ccc(Cl)c(Oc2cc(Cl)cc(C#N)c2)c1F.Cl`, the melting point lay within 169 to 180.3 °C. As to `Cc1cc(S(=O)(=O)NC(=O)c2cccnc2)ccc1NC(=O)Cc1ccc(Cl)c(Oc2cc(Cl)cc(C#N)c2)c1F.Cl`, the melting point lay within 261.8 to 263.6 °C. On to `N#Cc1cc(Cl)cc(Oc2cc(CC(=O)Nc3ccc(S(N)(=O)=O)cc3)ccc2Cl)c1` [Compound I-1, 2-[4-Chloro-3-(3-chloro-5-cyano-phenoxy)-phenyl]-N-(4-sulfamoyl-phenyl)-acetamide], for which the melting point is 210.5 to 214 °C. The compound `N#Cc1cc(C#N)cc(Oc2cc(CC(=O)Nc3ccc(S(N)(=O)=O)cc3)ccc2Cl)c1` [Compound I-2, 2-[4-Chloro-3-(3,5-dicyano-phenoxy)-phenyl]-N-(4-sulfamoyl-phenyl)-acetamide] returned a melting point of 218 to 219 °C. `Cc1cc(OCCCS(N)(=O)=O)ccc1NC(=O)Cc1ccc(Cl)c(Oc2cc(Cl)ccc2Br)c1` [Compound I-3, 2-[3-(2-Bromo-5-chloro-phenoxy)-4-chloro-phenyl]-N-[2-methyl-4-(3-sulfamoyl-propoxy)-phenyl]-acetamide] came in with a melting point of 190.1 to 192.2 °C. As for `NS(=O)(=O)c1ccc(NC(=O)Cc2ccc(Cl)c(Oc3cc(Cl)ccc3Br)c2)cc1` [Compound I-4, 2-[3-(2-Bromo-5-chloro-phenoxy)-4-chloro-phenyl]-N-(4-sulfamoyl-phenyl)-acetamide], the melting point was in the range of 260.1 to 261.9 °C. The same measure for `N#Cc1cc(C#N)cc(Oc2c(Cl)ccc(CC(=O)Nc3ccc(S(N)(=O)=O)cc3)c2F)c1` [Compound I-9, 2-[4-Chloro-3-(3,5-dicyano-phenoxy)-2-fluoro-phenyl]-N-(4-sulfamoyl-phenyl)-acetamide]: 135.7 to 138.1 °C; for `NS(=O)(=O)c1ccc(NC(=O)Cc2ccc(Cl)c(Oc3cc(Cl)cc(Cl)c3Cl)c2F)cc1` [Compound I-10, 2-[4-Chloro-2-fluoro-3-(2,3,5-trichloro-phenoxy)-phenyl]-N-(4-sulfamoyl-phenyl)-acetamide]: 247 to 249 °C. Then `Cc1ccc(CC(=O)Nc2ccc(S(N)(=O)=O)cc2)cc1Oc1cc(F)cc(C#N)c1` [Compound I-11, 2-[3-(3-Cyano-5-fluoro-phenoxy)-4-methyl-phenyl]-N-(4-sulfamoyl-phenyl)-acetamide], with 165.8 to 168.1 °C. The compound `Cc1ccc(CC(=O)Nc2ccccc2Cl)cc1Oc1cc(F)cc(C#N)c1` [Compound I-12, N-(2-Chloro-phenyl)-2-[3-(3-cyano-5-fluoro-phenoxy)-4-methyl-phenyl]-acetamide] came in with a melting point of 131.1 to 132.2 °C.

In the case of `N#Cc1cc(Oc2c(Cl)ccc(CC(=O)Nc3ccc(S(N)(=O)=O)cc3)c2F)cc(C(F)F)c1` [Compound I-13, 2-[4-Chloro-3-(3-cyano-5-difluoromethyl-phenoxy)-2-fluoro-phenyl]-N-(4-sulfamoyl-phenyl)-acetamide], the melting point lay in the range of 214 to 218 °C. Take `N#Cc1cc(Oc2c(Cl)ccc(CC(=O)Nc3ccccc3Cl)c2F)cc(C(F)F)c1` [Compound I-14, 2-[4-Chloro-3-(3-cyano-5-difluoromethyl-phenoxy)-2-fluoro-phenyl]-N-(2-chloro-phenyl)-acetamide]: the melting point was in the range of 169.5 to 171 °C. Regarding `CCc1ccc(CC(=O)Nc2ccc(S(N)(=O)=O)cc2)cc1Oc1cc(Cl)ccc1Br` [Compound I-15, 2-[3-(2-Bromo-5-chloro-phenoxy)-4-ethyl-phenyl]-N-(4-sulfamoyl-phenyl)-acetamide], the melting point was 193.7 to 195.9 °C. For `CCc1ccc(CC(=O)Nc2ccccc2Cl)cc1Oc1cc(Cl)ccc1Br` [Compound I-16, 2-[3-(2-Bromo-5-chloro-phenoxy)-4-ethyl-phenyl]-N-(2-chloro-phenyl)-acetamide], the melting point is 154 to 155.5 °C. Then `CCc1ccc(CC(=O)Nc2ccc(S(N)(=O)=O)cc2)cc1Oc1cc(Cl)ccc1C#N` [Compound I-17, 2-[3-(5-Chloro-2-cyano-phenoxy)-4-ethyl-phenyl]-N-(4-sulfamoyl-phenyl)-acetamide], with 198.1 to 202.6 °C; and `CCc1ccc(CC(=O)Nc2ccccc2Cl)cc1Oc1cc(Cl)ccc1C#N` [Compound I-18, 2-[3-(5-Chloro-2-cyano-phenoxy)-4-ethyl-phenyl]-N-(2-chloro-phenyl)-acetamide], with 168 to 169.9 °C; and `CCc1ccc(CC(=O)Nc2ccc(S(N)(=O)=O)cc2)cc1Oc1cc(Cl)ccc1Cl` [Compound I-19, 2-[3-(2,5-Dichloro-phenoxy)-4-ethyl-phenyl]-N-(4-sulfamoyl-phenyl)-acetamide], with 190 to 193.4 °C. Regarding `CCc1ccc(CC(=O)Nc2ccc(S(N)(=O)=O)cc2)cc1Oc1c(Cl)cccc1Cl` [Compound I-20, 2-[3-(2,6-Dichloro-phenoxy)-4-ethyl-phenyl]-N-(4-sulfamoyl-phenyl)-acetamide], the melting point lay within 222.5 to 225 °C.

In turn, `CCc1ccc(CC(=O)Nc2ccccc2Cl)cc1Oc1cc(Cl)ccc1Cl` [Compound I-21, N-(2-Chloro-phenyl)-2-[3-(2,5-dichloro-phenoxy)-4-ethyl-phenyl]-acetamide] registered a melting point of 146.3 to 147.1 °C. Take `CCc1ccc(CC(=O)Nc2ccc(S(N)(=O)=O)cc2)cc1Oc1cc(Cl)cc(Br)c1` [Compound I-22, 2-[3-(3-Bromo-5-chloro-phenoxy)-4-ethyl-phenyl]-N-(4-sulfamoyl-phenyl)-acetamide]: the melting point was in the range of 216.1 to 221.3 °C. Then `CCc1ccc(CC(=O)Nc2ccccc2Cl)cc1Oc1c(Cl)cccc1Cl` [Compound I-23, N-(2-Chloro-phenyl)-2-[3-(2,6-dichloro-phenoxy)-4-ethyl-phenyl]-acetamide], with 107 to 110.5 °C; and `CCc1ccc(CC(=O)Nc2ccccc2Cl)cc1Oc1cc(Cl)cc(Br)c1` [Compound I-24, 2-[3-(3-Bromo-5-chloro-phenoxy)-4-ethyl-phenyl]-N-(2-chloro-phenyl)-acetamide], with 119.9 to 122.2 °C.

Turning to `CC(C)c1ccc(CC(=O)Nc2ccc(S(N)(=O)=O)cc2)cc1Oc1cc(Cl)ccc1Br` [Compound I-26, 2-[3-(2-Bromo-5-chloro-phenoxy)-4-isopropyl-phenyl]-N-(4-sulfamoyl-phenyl)-acetamide], the melting point was 204.1 to 206.7 °C. The same measure for `CC(C)c1ccc(CC(=O)Nc2ccccc2Cl)cc1Oc1cc(Cl)ccc1Br` [Compound I-27, 2-[3-(2-Bromo-5-chloro-phenoxy)-4-isopropyl-phenyl]-N-(2-chloro-phenyl)-acetamide]: 142.9 to 143.6 °C; for `N#Cc1cc(C#N)cc(Oc2c(Cl)ccc(CC(=O)Nc3ccccc3Cl)c2F)c1` [Compound I-28, 2-[4-Chloro-3-(3,5-dicyano-phenoxy)-2-fluoro-phenyl]-N-(2-chloro-phenyl)-acetamide]: 182.6 to 196.5 °C; for `Cc1ccc(CC(=O)Nc2ccc(S(N)(=O)=O)cc2)cc1Oc1cc(Cl)ccc1Br` [Compound I-30, 2-[3-(2-Bromo-5-chloro-phenoxy)-4-methyl-phenyl]-N-(4-sulfamoyl-phenyl)-acetamide]: 236.9 to 239.3 °C. Compound `Cc1cc(S(N)(=O)=O)ccc1NC(=O)Cc1ccc(C)c(Oc2cc(Cl)ccc2Br)c1` [Compound I-31, 2-[3-(2-Bromo-5-chloro-phenoxy)-4-methyl-phenyl]-N-(2-methyl-4-sulfamoyl-phenyl)-acetamide] gave a melting point of 200.5 to 203.5 °C.

In turn, `Cc1cc(S(N)(=O)=O)ccc1NC(=O)Cc1ccc(Cl)c(Oc2cc(C#N)cc(C#N)c2)c1F` [Compound I-32, 2-[4-Chloro-3-(3,5-dicyano-phenoxy)-2-fluoro-phenyl]-N-(2-methyl-4-sulfamoyl-phenyl)-acetamide] yielded a melting point of 248.4 to 250.8 °C. For the compound `Cc1ccc(CC(=O)Nc2ccccc2Cl)cc1Oc1cc(Cl)ccc1Br` [Compound I-33, 2-[3-(2-Bromo-5-chloro-phenoxy)-4-methyl-phenyl]-N-(2-chloro-phenyl)-acetamide], the melting point lay in the range of 133.9 to 135.9 °C.

One may read the melting point as the temperature, or range, at which the solid turns liquid.
